Measured values taken from patent publication US8158641B2, “2-anilino-4-aminoalkyleneaminopyrimidines” (Boehringer Ingelheim International GmbH, priority 2006, dated 2012).

Target: T1, full-length human PKC-α enzyme (Homo sapiens, UniProt P17252)
T1 construct: performed using full-length human PKC-α enzyme (Upstate Biotechnology); purchased Upstate Biotechnology
Assay: Assessment of PKC-α Inhibitory Activity (MALDI-TOF kinase assay)
Assay type: biochemical
Settings: full-length human PKC-α 0.12 μg/ml; ATP 45 μM; neurogranin 28-43 peptide 22 μM; 30 minute incubation at 24° C.; MALDI-TOF readout
Experimental: Measurement of PKC-α enzyme activity is performed using full-length human PKC-α enzyme (Upstate Biotechnology) at a final concentration of 0.12 μg/ml in a kinase assay buffer (0.09 mg/ml bovine serum albumin (BSA), 210 μM ethylenediaminetetraacetic acid (EDTA), 360 μM CaCl2, 1 mM Tris-HCl, pH=7.5, 0.5 mM MgCl2, 0.015 mg/ml phosphatidylserine and 0.015 mg/ml diacylglycerol). The reaction is initiated by addition of adenosine triphosphate (ATP; final concentration 45 μM) and a peptide substrate consisting of amino acids 28-43 (Ala-Ala-Lys-Ile-Gln-Ala-Ser-Phe-Arg-Gly-His-Met-Ala-Arg-Lys-Lys) of neurogranin (Promega; final concentration 22 μM). After a 30 minute incubation at 24° C. the reaction is terminated by adding 5 μL of the reaction mixture into 50 μL of MALDI matrix solution (5 mg/ml α-cyano-4-hydroxycinnamic acid in 50% Acetonitrile/H2O, 0.1% TFA, 5 mM ammonium phosphate). Two microliters of the stopped reaction mixture is transferred onto a MALDI-TOF mass spectrometer target plate.
All spectra are collected on an Applied Biosystems 4700 Proteomics Analyzer MALDI-TOF MS equipped with a Nd:YAG laser (355 nm, 3 ns pulse width, 200 Hz repetition rate) in negative ion reflector mode. The system is operated with 4700 Explorer software, version 3.0. Automated acquisition parameters are adjusted to capture and average only those individual spectra within defined success criteria. Specifically, signal intensities for the substrate peptide are set to a minimum threshold of 3000 counts and a maximum intensity of 65,000 counts. This ensured that neither null spectra nor saturated spectra are averaged into the final readout. Between 1000 and 1500 laser shots are averaged for each sample. Data are collected in triplicate from 3 successive days to capture the maximum variability related to preparation of enzyme reaction, transfer of samples to MALDI target plates, data collection, and data extraction.
The isotope cluster areas for each peptide substrate and product peaks are extracted into a Microsoft Excel worksheet from the 10×10 array of spectral data simultaneously using the automated analysis function provided within the 4700 Explore software. The isotope cluster area is defined by the software algorithm based on the molecular weight and the general elemental composition of the peptides. The percent conversion (% C) of substrate to product is calculated as the cluster area of the product (P) divided by the sum of the cluster areas of the substrate (S) and the product multiplied by 100 as represented by the following equation: […]
For dose-dependent inhibition studies, the inhibition is plotted as a % Maximal Activity (% MA). Equation one is a measure of the ratio of product to substrate then solving for the % C. However, to measure inhibition of the enzyme activity, one must measure the degree to which that activity (% C) is curtailed. Thus the dose-dependant inhibition data is plotted as % MA where the maximal activity is the % C measured in control reactions with no inhibitor as represented by the following equation: […]

IC50	SMILES
312 nM	CN(C)CCCNc1ccnc(Nc2cccc(Cl)c2)n1 [No. 3, N^2-(3-chlorophenyl)-N^4-[3-(dimethylamino)propyl]pyrimidine-2,4-diamine]
0.8 nM	CN(C)CCCCNc1ccnc(Nc2cccc(Cl)c2)n1 [No. 81, N^2-(3-chlorophenyl)-N^4-[4-(dimethylamino)butyl]pyrimidine-2,4-diamine]
1 nM	CCN(CC)CCCNc1ccnc(Nc2cccc(Cl)c2)n1 [compound 6]
83 nM	CN(C)CCNc1ccnc(Nc2cccc(Cl)c2)n1 [compound 69]
12 nM	CN(C)CCCCNc1ccnc(Nc2cccc(Cl)c2)n1 [compound 81]

The next lines start with the compound.

SMILES	IC50
CN(C)CC(C)(C)CNc1ccnc(Nc2cccc(C(F)(F)F)c2)n1 [No. 75, N^4-[3-(dimethylamino)-2,2-dimethylpropyl]-N^2-[3-(trifluoromethyl)phenyl]pyrimidine-2,4-diamine]	4 nM
CN(C)CCCNc1ccnc(Nc2ccc(Cl)c(Cl)c2)n1 [compound 15]	15 nM
Cc1ccc(Nc2nccc(NCCCN(C)C)n2)cc1Cl [compound 21]	3 nM
CN(C)CCCNc1ccnc(Nc2cccc(Cl)c2F)n1 [compound 25]	23 nM
CN(C)CCCNc1ccnc(Nc2ccc(F)c(Cl)c2)n1 [compound 27]	8 nM
CN(C)CCCNc1ccnc(Nc2ccc(F)c(F)c2)n1 [compound 33]	65 nM
CN(C)CCCNc1ccnc(Nc2cccc(C(F)(F)F)c2)n1 [compound 39]	0.5 nM
CN(C)CCCNc1ccnc(Nc2ccc(Cl)c(C(F)(F)F)c2)n1 [compound 45]	3 nM
COc1cccc(Nc2nccc(NCCCN(C)C)n2)c1 [compound 51]	14 nM
Cc1cccc(Nc2nccc(NCCCN(C)C)n2)c1 [compound 55]	40 nM
Cc1cccc(Nc2nccc(NCCCN(C)C)n2)c1 [compound 58]	93 nM
CN(C)CCCNc1ccnc(Nc2cccc(-c3ccccc3)c2)n1 [compound 87]	0.4 nM
Cc1nc(-c2cccc(Nc3nccc(NCCCN(C)C)n3)c2)cs1 [compound 105]	48 nM
